What all share (test): inhibition of tumour cell growth, NCI panel, 48 h
Test [1] deals with NCI-H460 lung.
Test [2] relates to HS 578T breast.
Test [3] deals with MOLT-4 leukemia.
The subject of test [4] is COLO 205 colon.
For test [5], the system named is RXF 393 renal.
For test [6], the system named is SK-MEL-5 melanoma.
In test [7] the test system is A498 renal.
For test [8], the system named is NCI-H23 lung.
Test [9] has as its system HOP-62 NSCLC.
Test [10] concerns 786-0 renal.
Test [11] deals with SR leukemia.

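The compound was tested at five concentrations on cells cultured in 96-well plates, with a 48-hour exposure period. TGI denotes the concentration required for complete inhibition of growth.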 Where only a bound is given, the exact number is not on record here.

For `Cc1cc(O)c(-c2cc(O)c(C)cc2O)cc1O`, the TGI in test [1] was 39.8 µM; in [2], > 72.2 µM; in test [3] it was 5.21 µM; in test [4], 22.6 µM; in test [5] it was 5.93 µM; in test [6], 28.4 µM. For the same compound, the TGI turned out to be 41.8 µM in test [7], 38.9 µM in test [8], 32.6 µM in test [9] and 8.55 µM in test [10].
On to `O=[N+]([O-])c1cc(Cl)ccc1Sc1ccccc1`, for which the TGI in test [1], in test [2], in test [3], in test [4], in [5] and in test [6] was > 100 µM each time. Besides, the TGI in test [7], in test [8], in test [9] and in [10] was > 100 µM throughout.
As to `C[C@H]1OC(=O)[C@@H]2N=NN(Cc3ccccc3)[C@H]12`, the TGI in test [1], in test [11], in test [3], in test [4], in [5] and in test [6] was > 100 µM in each case. Further, the TGI in test [7], in test [8], in test [9] and in test [10] was > 100 µM each time.
`COc1cc([N+](=O)[O-])c(OC)c2c(Nc3ccc(S(=O)(=O)O)c4cc(S(=O)(=O)O)cc(S(=O)(=O)O)c34)cc(C)nc12`: the TGI in test [2], in test [3], in test [4], in [5], in [6] and in [7] was > 100 µM each time. For the same compound, the TGI in test [8], in test [9] and in test [10] was > 100 µM each time.
Regarding `CSc1nc2c(ncn2C2OC(CO)C(O)C(O)C2O)c(=O)[nH]1` (configuration not stated), the TGI in [1], in test [3], in test [4], in [5], in [6] and in test [7] was > 100 µM in each case. Moreover, the TGI in test [8] and in test [9] was > 100 µM in each case.
`O=c1c2ccccc2sc2ccccc12`: the TGI in test [1], in test [2], in test [3], in [4], in [5] and in test [6] was > 100 µM in each case. Also, the TGI in test [7], in test [8], in test [9] and in test [10] was > 100 µM throughout.
Turning to `C=C1C(=O)C23C(O)CC4C5(C)CCCC4(C(O)OC5)C2C(OC(C)=O)CC1C3O` (configuration not stated), the TGI in test [1] stood at 15.9 µM; in test [11], 18.5 µM; in test [3] it was 17 µM; in [4], 18.9 µM; in test [6], 31.1 µM; in test [8] it was 19.3 µM. Further, the TGI was 32.2 µM in [9] and 19.2 µM in [10].
As to `COc1ccc2c(c1)c(=O)c1c(NCCNCCO)ccc3c(=O)n(CCN(C)C)c(=O)n2c31`, the TGI in test [1] was 0.266 µM; in test [2] it was 0.581 µM; in test [3], > 100 µM; in test [4] it was 0.247 µM; in [5], 0.266 µM; in test [6], 0.598 µM. The TGI was 0.534 µM in test [7], 0.271 µM in test [8], 2.4 µM in [9] and 0.892 µM in test [10].
In the case of `CC#CC(O)(C(=O)OC1CC(C)N(C)C(C)(C)C1)C1CCCC1` (configuration not stated), the TGI in [11], in [3], in [4], in [5], in [6] and in test [8] was > 100 µM in each case. Besides, the TGI in [9] and in test [10] was > 100 µM in each case.
As for `CCOC(=O)C1=CC(C)(C(=O)OCC)Nc2c(nc(N)[nH]c2=O)N1` (configuration not stated), the TGI in test [1], in [2], in test [3], in test [4], in test [5] and in test [6] was > 10 µM in each case. Besides, the TGI in [7], in test [8], in test [9] and in test [10] was > 10 µM each time.
`COP(=O)(OC)C(Nc1ccc(Cc2ccc(NC(c3ccco3)P(=O)(OC)OC)cc2)cc1)c1ccco1` (configuration not stated): the TGI in [1] is > 100 µM; in test [2] it was > 100 µM; in test [3] it was > 100 µM; in test [4], > 100 µM; in [5], 19.9 µM; in [6], > 100 µM. For the same compound, the TGI was 56 µM in test [7], 44.5 µM in test [8], 20.4 µM in test [9] and > 100 µM in [10].
Turning to `CC1(C)OC2COC3([C@@H]4OC(C)(C)O[C@@H]4CO)OC(C)(C)OC3C2O1` (some centres not stated), the TGI in test [1], in [11], in test [4], in test [5], in test [6] and in test [7] was > 100 µM in each case. The TGI in [8], in [9] and in test [10] was > 100 µM each time.
Turning to `COc1ccc(/C=N/n2c(C)nc3c(sc(=S)n3-c3ccccc3)c2=O)cc1`, the TGI in test [1], in [11], in [3], in test [4], in test [6] and in test [7] was > 100 µM throughout. For the same compound, the TGI in test [8] and in [9] was > 100 µM each time.
Regarding `COc1cc(/C=C2\CCC(C)/C(=C\c3cc(OC)c(OC)c(OC)c3)C2=O)cc(OC)c1OC` (configuration not stated), the TGI in [2] is > 100 µM; in test [4] it was 5.2 µM; in test [5], 6.36 µM; in test [6] it was 5.7 µM; in [7] it was 6.06 µM; in test [9], 9.3 µM. The TGI in test [10] is > 100 µM.

The record behind these values is PubChem BioAssay (NCI).
